Data: patent US10882835B2 (Imago Biosciences, Inc., priority 2013, dated 2021)

Key:
KDM1A (LSD1) = KDM1A (LSD1) (Homo sapiens (Human), UniProt O60341); assay: 10-dose IC50 fluorescence coupling enzyme assay, LSD1 demethylase activity on histone H3(1-21)K4me2 peptide (HRP/Amplex Red); format: biochemical; conditions: 10 μM histone H3(1-21)K4me2 peptide substrate
[1] = Metabolic stability in murine liver microsomes; format: in vitro ADME; conditions: mouse liver microsomes, 2 μM compound, NADPH
Method: The metabolic stability of compounds disclosed herein in pooled human liver microsomes (HLM) and pooled male mouse liver microsomes (MMLM) was determined according to the following protocol, in which the concentrations of compounds in reaction systems were evaluated by LC/MS/MS for estimating the stability in liver microsomes.
Pooled human liver microsomes (HMMCPL; PL050B) and pooled male mouse liver microsomes (MSMCPL; MS033) were purchased from CellzDirect (Invitrogen). Microsomes were stored at −80 C prior to use.
A master solution was prepared containing microsome (stock concentration 5 mg/mL, volume 50 μL, final concentration 0.5 mg/mL), MgCl2 solution (stock concentration 50 mM, volume 50 μL, final concentration 5 mM), phosphate buffer (stock concentration 200 mM, volume 250 μL, final concentration 100 mM), and water (volume […]. Five μL of 200 μM test compounds or control solution (control compound: verapamil) was then added. The final concentration of test compounds or verapamil in the reaction system was 2 μM. The mixture was pre-warmed at 37 C for 5 min.
The reaction was started with the addition of 50 μL of 10 mM NADPH solution at the final concentration of 1 mM and carried out at 37 C. 50 μL of ultra-pure H2O was used instead of NADPH solution in the negative control.
Aliquots of 50 μL were taken from the reaction solution at 0 and 30 min. The reaction was stopped by the addition of 3 volumes of cold methanol with IS (200 nM imipramine, 200 nM labetalol and 2 μM ketoprofen) at the designated time points. Samples were centrifuged at 16,000 g for 10 minutes to precipitate protein. Aliquot of 100 μL of the supernatant was diluted by 100 μL ultra-pure H2O, and the mixture was used for LC/MS/MS analysis. All experiments were performed in duplicate.
Samples were analyzed using liquid chromatography-mass spectrometry. The LC system comprised a Shimadzu liquid chromatograph separation system equipped with degasser DGU-20A3, solvent delivery unit LC-20AD, system controller CBM-20A, column oven CTO-10ASVP and CTC Analytics HTC PAL System. Chromatographic conditions included a Phenomenex column, 5.0μ C18 (2.0×50 mm); a mobile phase of 0.1% formic acid in acetonitrile and 0.1% formic acid in water; an elution rate of 500 μL/min; column temperature 25 C; injection volume 10 μL. Mass spectrometric analysis was performed using an API 4000 instrument from AB Inc. (Canada) with an ESI interface. The data acquisition and control system were created using Analyst 1.5.1 software from ABI Inc. A turbo spray ion source and electrospray ionization were employed in a multiple reaction monitoring (MRM) scan. Additional parameters included: collision gas, 6 L/min; curtain gas, 30 L/min; nebulize gas, 50 L/min; auxiliary gas, 50 L/min; temperature, 500 C; ionspray voltage, +5500 v (positive MRM). Quadripoles Q1 and Q3 were set to 456.2 and 200.2, respectively; declustering potential (DP), entrance potential (EP), and collision cell entrance potential (CE) were set to 120, 10, and 55 v, respectively; collision cell exit potential (CXP) was 12 v.
All calculations were carried out using Microsoft Excel. Peak areas were determined from extracted ion chromatograms. The control compounds were included in the assay. Any value of the compounds that was not within the specified limits was rejected and the experiment was repeated. The reaction system without the cofactors was used to exclude the misleading factor that resulted from instability of chemical itself.

IC50 (KDM1A (LSD1)) [µM] | % at 30 min, MLM [1] | % at 30 min, MLM ([1]; numeric values of Table 2) [%] | SMILES
> 1 | + (+ is ≥20%) | 65 | C[C@@]1(NCCCC[C@H](NC(=O)c2ccccc2)C(=O)N2CCN(S(C)(=O)=O)CC2)C[C@H]1c1ccc(F)cc1 [Example 8, N—((S)-6-(((1R,2S)-2-(4-fluorophenyl)-1-methylcyclopropyl)amino)-1-(4-(methylsulfonyl)piperazin-1-yl)-1-oxohexan-2-yl)benzamide]
< 1 | + (+ is ≥20%) | – | CN1CCN(C(=O)[C@H](CCCCN[C@@H]2C[C@H]2c2ccccc2)NC(=O)c2ccccc2)CC1 [Example 4, N—((S)-1-(4-methylpiperazin-1-yl)-1-oxo-6-(((1R,2S)-2-phenylcyclopropyl)amino)hexan-2-yl)benzamide]
< 1 | − (− is <20%) | – | O=C(N[C@@H](CCCCN[C@@H]1C[C@H]1c1ccccc1)C(=O)N1CCCCC1)c1ccccc1 [Example 2, N—((S)-1-oxo-6-(((1R,2S)-2-phenylcyclopropyl)amino)-1-(piperidin-1-yl)hexan-2-yl)benzamide]
< 1 | + (+ is ≥20%) | – | O=C(N[C@@H](CCCCN[C@@H]1C[C@H]1c1ccc(F)cc1)C(=O)N1CCS(=O)(=O)CC1)c1ccccc1 [Example 16, N—((S)-1-(1,1-dioxidothiomorpholino)-6-(((1R,2S)-2-(4-fluorophenyl)cyclopropyl)amino)-1-oxohexan-2-yl)benzamide]
< 1 | − (− is <20%) | 2.3 | O=C(N[C@@H](CS(=O)(=O)CCN[C@@H]1C[C@H]1c1ccc(F)cc1)C(=O)N1CCOCC1)c1ccc(F)cc1 [Example 19, 4-fluoro-N—((R)-3-((2-(((1R,2S)-2-(4-fluorophenyl)cyclopropyl)amino)ethyl)sulfonyl)-1-morpholino-1-oxopropan-2-yl)benzamide]
< 1 | + (+ is ≥20%) | – | CN(C(=O)c1ccccc1)[C@@H](CCCCN[C@]1(C)C[C@H]1c1ccc(F)cc1)C(=O)N1CCN(S(C)(=O)=O)CC1 [Example 27, N-[(2S)-6-[[(1R,2S)-2-(4-fluorophenyl)-1-methylcyclopropyl]amino]-1-(4-methanesulfonylpiperazin-1-yl)-1-oxohexan-2-yl]-N-methylbenzamide]

Further lines, the compound ahead of its results:

SMILES | IC50 (KDM1A (LSD1)) [µM] | % at 30 min, MLM [1] | % at 30 min, MLM ([1]; numeric values of Table 2) [%]
CN1CCN(C(=O)[C@H](CCCCN[C@@H]2C[C@H]2c2ccc(F)cc2)NC(=O)c2ccc(F)cc2)CC1 [Example 3, 4-fluoro-N—((S)-6-(((1R,2S)-2-(4-fluorophenyl)cyclopropyl)amino)-1-(4-methylpiperazin-1-yl)-1-oxohexan-2-yl)benzamide] | < 1 | + (+ is ≥20%) | –
COc1ccc([C@@H]2C[C@H]2NCCS(=O)(=O)C[C@H](NC(=O)c2ccc(F)cc2)C(=O)N2CCOCC2)cc1 [Example 18, 4-fluoro-N—((R)-3-((2-(((1R,2S)-2-(4-methoxyphenyl)cyclopropyl)amino)ethyl)sulfonyl)-1-morpholino-1-oxopropan-2-yl)benzamide] | < 1 | − (− is <20%) | –
O=C(N[C@@H](CCCCN[C@@H]1C[C@H]1c1ccc(F)cc1)C(=O)N1CCCCC1)c1ccc(F)cc1 [Example 13, 4-fluoro-N—((S)-6-(((1R,2S)-2-(4-fluorophenyl)cyclopropyl)amino)-1-oxo-1-(piperidin-1-yl)hexan-2-yl)] | < 1 | − (− is <20%) | –
O=C(N[C@@H](CCCCN[C@@H]1C[C@H]1c1ccccc1)C(=O)N1CCOCC1)c1ccccc1 [Example 6, N—((S)-1-morpholino-1-oxo-6-(((1R,2S)-2-phenylcyclopropyl)amino)hexan-2-yl)benzamide] | < 1 | + (+ is ≥20%) | –
O=C(N[C@@H](CCCCN[C@@H]1C[C@H]1c1ccc(F)cc1)C(=O)N1CCCCC1)c1ccccn1 [Example 7, N-[(2S)-6-[[(1R,2S)-2-(4-fluorophenyl)cyclopropyl]amino]-1-oxo-1-(piperidin-1-yl)hexan-2-yl]pyridine-2-carboxamide] | < 1 | − (− is <20%) | –
CN1CCN(C(=O)[C@H](CCCCN[C@@H]2C[C@H]2c2ccc(F)cc2)NC(=O)c2ccccc2)CC1 [Example 12, N—((S)-6-(((1R,2S)-2-(4-fluorophenyl)cyclopropyl)amino)-1-(4-methylpiperazin-1-yl)-1-oxohexan-2-yl)benzamide] | < 1 | + (+ is ≥20%) | –
C[C@@]1(NCCS(=O)(=O)C[C@H](NC(=O)c2ccc(F)cc2)C(=O)N2CCOCC2)C[C@H]1c1ccc(F)cc1 [Example 17, 4-fluoro-N—((R)-3-((2-(((1R,2S)-2-(4-fluorophenyl)-1-methylcyclopropyl)amino)ethyl)sulfonyl)-1-morpholino-1-oxopropan-2-yl)benzamide] | < 1 | − (− is <20%) | 2.7
O=C(N[C@@H](CCCCN[C@@H]1C[C@H]1c1ccc(F)cc1)C(=O)N1CCCCC1)c1ccccc1 [Example 10, N—((S)-6-(((1R,2S)-2-(4-fluorophenyl)cyclopropyl)amino)-1-oxo-1-(piperidin-1-yl)hexan-2-yl)benzamide] | < 1 | − (− is <20%) | –
